Assay results as given in the NIST ThermoML archive (doi:10.1021/je050050p).

Conditions: Liquid, Vibrating tube method

CN(C)C=O [dimethylformamide]
Conditions	mass density [kg/m3]
313.12 K, 1008 kPa	930.41
313.12 K, 2010 kPa	931.09
313.12 K, 3012 kPa	931.73
313.12 K, 4008 kPa	932.38
313.12 K, 5004 kPa	933.04
313.12 K, 6002 kPa	933.68
313.12 K, 7002 kPa	934.32
313.12 K, 8004 kPa	934.97
313.12 K, 9000 kPa	935.62
313.12 K, 10004 kPa	936.27
313.12 K, 11004 kPa	936.89
313.12 K, 12004 kPa	937.51
313.12 K, 13005 kPa	938.14
313.12 K, 14007 kPa	938.78
313.12 K, 15002 kPa	939.37
313.12 K, 16012 kPa	940
313.12 K, 17009 kPa	940.59
313.12 K, 18015 kPa	941.19
313.12 K, 19010 kPa	941.79
313.12 K, 20013 kPa	942.42
313.12 K, 21009 kPa	942.99
313.12 K, 22011 kPa	943.58
313.12 K, 23019 kPa	944.17
313.12 K, 24013 kPa	944.75
313.12 K, 25011 kPa	945.35
323.06 K, 1014 kPa	920.89
323.06 K, 2007 kPa	921.59
323.06 K, 3026 kPa	922.27
323.06 K, 4006 kPa	922.95
323.06 K, 5016 kPa	923.62
323.06 K, 6010 kPa	924.3
323.06 K, 7006 kPa	924.99
323.06 K, 8010 kPa	925.64
323.06 K, 9012 kPa	926.32
323.06 K, 10014 kPa	926.99
323.06 K, 11011 kPa	927.65
323.06 K, 12013 kPa	928.31
323.06 K, 13007 kPa	928.97
323.06 K, 14011 kPa	929.62
323.06 K, 15008 kPa	930.29
323.06 K, 16014 kPa	930.92
323.06 K, 17004 kPa	931.54
323.06 K, 18006 kPa	932.19
323.06 K, 19006 kPa	932.82
323.06 K, 20005 kPa	933.44
323.06 K, 21002 kPa	934.07
323.06 K, 22013 kPa	934.7
323.06 K, 23015 kPa	935.31
323.06 K, 24008 kPa	935.92
323.06 K, 25012 kPa	936.53
333 K, 1008 kPa	911.34
333 K, 2018 kPa	912.08
333 K, 3006 kPa	912.78
333 K, 4005 kPa	913.51
333 K, 5005 kPa	914.23
333 K, 6008 kPa	914.97
333 K, 7003 kPa	915.68
333 K, 8009 kPa	916.39
333 K, 9010 kPa	917.11
333 K, 10008 kPa	917.81
333 K, 11008 kPa	918.51
333 K, 12008 kPa	919.2
333 K, 13013 kPa	919.9
333 K, 14006 kPa	920.57
333 K, 15007 kPa	921.24
333 K, 16011 kPa	921.92
333 K, 17019 kPa	922.59
333 K, 18010 kPa	923.27
333 K, 19004 kPa	923.91
333 K, 20012 kPa	924.58
333 K, 21005 kPa	925.24
333 K, 22005 kPa	925.88
333 K, 23014 kPa	926.52
333 K, 24009 kPa	927.19
333 K, 25009 kPa	927.83
342.86 K, 1028 kPa	901.52
342.86 K, 2020 kPa	902.3
342.86 K, 3015 kPa	903.09
342.86 K, 4002 kPa	903.84
342.86 K, 5035 kPa	904.63
342.86 K, 6026 kPa	905.39
342.86 K, 7013 kPa	906.13
342.86 K, 8017 kPa	906.89
342.86 K, 9024 kPa	907.66
342.86 K, 10012 kPa	908.38
342.86 K, 11048 kPa	909.14
342.86 K, 11999 kPa	909.83
342.86 K, 13018 kPa	910.6
342.86 K, 14029 kPa	911.32
342.86 K, 15007 kPa	912.03
342.86 K, 15994 kPa	912.71
342.86 K, 17041 kPa	913.47
342.86 K, 18012 kPa	914.16
342.86 K, 19006 kPa	914.85
342.86 K, 20042 kPa	915.55
342.86 K, 21025 kPa	916.22
342.86 K, 22008 kPa	916.9
342.86 K, 23079 kPa	917.63
342.86 K, 24008 kPa	918.25
342.86 K, 25017 kPa	918.93
352.8 K, 1040 kPa	891.76
352.8 K, 2009 kPa	892.57
352.8 K, 3011 kPa	893.41
352.8 K, 4020 kPa	894.22
352.8 K, 5050 kPa	895.06
352.8 K, 6060 kPa	895.78
352.8 K, 6996 kPa	896.53
352.8 K, 8008 kPa	897.34
352.8 K, 9034 kPa	898.16
352.8 K, 10019 kPa	898.93
352.8 K, 11043 kPa	899.73
352.8 K, 11998 kPa	900.45
352.8 K, 13028 kPa	901.24
352.8 K, 14015 kPa	901.99
352.8 K, 15028 kPa	902.74
352.8 K, 16000 kPa	903.48
352.8 K, 17011 kPa	904.23
352.8 K, 17999 kPa	904.96
352.8 K, 19044 kPa	905.73
352.8 K, 20050 kPa	906.43
352.8 K, 21038 kPa	907.16
352.8 K, 21955 kPa	907.8
352.8 K, 23009 kPa	908.57
352.8 K, 23996 kPa	909.27
352.8 K, 25056 kPa	910.04
362.67 K, 1058 kPa	882.04
362.67 K, 2038 kPa	882.89
362.67 K, 3044 kPa	883.77
362.67 K, 4027 kPa	884.62
362.67 K, 5068 kPa	885.54
362.67 K, 6036 kPa	886.37
362.67 K, 7025 kPa	887.22
362.67 K, 8027 kPa	888.03
362.67 K, 9045 kPa	888.9
362.67 K, 10021 kPa	889.71
362.67 K, 11024 kPa	890.55
362.67 K, 11996 kPa	891.3
362.67 K, 13061 kPa	892.19
362.67 K, 14027 kPa	892.95
362.67 K, 15025 kPa	893.73
362.67 K, 15987 kPa	894.49
362.67 K, 17050 kPa	895.32
362.67 K, 18009 kPa	896.08
362.67 K, 19041 kPa	896.85
362.67 K, 20032 kPa	897.62
362.67 K, 21035 kPa	898.36
362.67 K, 22014 kPa	899.1
362.67 K, 23018 kPa	899.87
362.67 K, 24007 kPa	900.58
362.67 K, 25016 kPa	901.35
